Reference: patent publication US10221163B2 (priority 2015, dated 2019)
pIC50: −log10 of the molar value. Where two headings read alike, the source gives them in different places.

Tests used:
[1] = test system: Escherichia coli expressing NDM-1 (CLB30005, CLB30016); assay type: cell-based; details: with imipenem 1 μg/ml; 95% inhibition of bacterial growth
Method in brief: (§1)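 Growth by absorbance after 22–24 h at 35°C defined the read-out, with imipenem fixed at 1 μg/ml alongside compound. Inocula came from overnight blood-agar colonies at 35°C, resuspended in saline and diluted 1:100 in 1.1×CAMHB.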

[2] = test system: Klebsiella pneumoniae expressing VIM-1 (IHMA599644); assay type: cell-based; details: with imipenem 1 μg/ml; 95% inhibition of bacterial growth
Method in brief: as §1

[3] = test system: Serratia marcescens expressing IMP-1 (CL5741); assay type: cell-based; details: with imipenem 1 μg/ml; 95% inhibition of bacterial growth
Method in brief: as §1

[4] = test system: Pseudomonas aeruginosa MB9798 vs MB9799; details: ratio MITC95 PA_9798/MITC95 PA_9799
Method in brief: (§2)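 PAO1 pair, broth microdilution; fixed β-lactam (imipenem/ceftazidime) at ~CLSI breakpoint + fixed class A/C BLI for AmpC; serial MBLi titration; endpoint = MBLi conc. restoring susceptibility; MB9798:MB9799 ratio = efflux liability.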

[5] = test system: Pseudomonas aeruginosa efflux− (MB9799), IMP-1; assay type: cell-based; details: concentration restoring susceptibility to imipenem at 2 μg/mL in the presence of a class A, C, D serine β-lactamase inhibitor closely related to relebactam
Method in brief: as §2

VIM-1 = VIM-1 (Pseudomonas aeruginosa (strain ATCC 15692 / DSM 22644 / CIP 104116 / JCM 14847 / LMG 12228 / 1C / PRS 101 / PAO1), UniProt A0A0F7KYQ8); experiment: biochemical; details: CCF2-FA substrate, 30 pM enzyme, 2 hours at 25° C.
Method in brief: (§3)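 Two-hour, 25° C incubation of enzyme with inhibitor and CCF2-FA (7-hydroxycoumarin–cephalosporin–fluorescein). Fluorescence read-out; IC50 via 4-parameter fit.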

NDM-1 = NDM-1 (Klebsiella pneumoniae, UniProt C7C422); experiment: biochemical; assay type: biochemical; details: fluorescence assay, CCF2-FA substrate, 1 pM enzyme, 2 hours at 25° C.; read-out: NDM-1 IC50
NDM-1, sequence (C7C422 whole entry, looked up, species assumed): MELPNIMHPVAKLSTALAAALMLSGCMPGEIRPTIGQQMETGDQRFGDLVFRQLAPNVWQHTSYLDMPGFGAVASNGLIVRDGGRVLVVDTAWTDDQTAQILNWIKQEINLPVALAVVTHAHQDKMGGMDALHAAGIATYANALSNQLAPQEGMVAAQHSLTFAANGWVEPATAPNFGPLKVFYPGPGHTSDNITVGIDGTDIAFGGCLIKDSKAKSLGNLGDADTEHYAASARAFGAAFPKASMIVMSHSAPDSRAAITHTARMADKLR
Method in brief: as §3

IMP-1 = IMP-1 (Serratia marcescens, UniProt P52699); experiment: biochemical; assay type: biochemical; details: fluorescence assay, CCF2-FA substrate, 2 pM enzyme, 2 hours at 25° C.; read-out: IMP-1 IC50
IMP-1, sequence (P52699 whole entry, looked up, species assumed): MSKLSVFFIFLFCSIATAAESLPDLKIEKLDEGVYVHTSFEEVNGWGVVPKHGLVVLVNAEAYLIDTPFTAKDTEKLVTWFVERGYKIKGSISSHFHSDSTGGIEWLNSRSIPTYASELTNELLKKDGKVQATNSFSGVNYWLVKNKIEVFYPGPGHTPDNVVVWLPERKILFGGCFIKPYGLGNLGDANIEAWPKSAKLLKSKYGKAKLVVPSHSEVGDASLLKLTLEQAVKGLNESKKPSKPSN
Method in brief: as §3

[6] = test system: Pseudomonas aeruginosa efflux+ (MB9798), IMP-1; assay type: cell-based; details: concentration restoring susceptibility to imipenem at 2 μg/mL in the presence of a class A, C, D serine β-lactamase inhibitor closely related to relebactam
Method in brief: as §2

[7] = fluorescence assay, read-out: VIM-1 IC50

SMILES: CN(CCc1ccncc1)S(=O)(=O)c1ccc(-c2cccc3sc(N)nc23)c(-c2nnn[nH]2)c1S(N)(=O)=O.O=C(O)C(F)(F)F [Example 100, 4-(2-(4-(2-aminobenzo[d]thiazol-4-yl)-N-methyl-2-sulfamoyl-3-(1H-tetrazol-5-yl)phenylsulfonamido)ethyl)pyridin-1-ium 2,2,2-trifluoroacetate]
- Escherichia coli expressing NDM-1 (CLB30016) MITC95 [1]: 50 µM
- Klebsiella pneumoniae expressing VIM-1 (IHMA599644) MITC95 [2]: 200 µM
- Serratia marcescens expressing IMP-1 (CL5741) MITC95 [3]: 25 µM
- Efflux ratio [4]: 32.00
- P. aeruginosa expressing IMP-1, efflux − (MB9799) MITC95 [5]: 6.25 µM
- pIC50 (VIM-1; VIM-1 IC50, fluorescence assay): 7.90
- pIC50 (NDM-1): 8.41
- pIC50 (IMP-1): 8.49
- P. aeruginosa expressing IMP-1, efflux + (MB9798) MITC95 [6]: 200 µM

SMILES: CC1(CN)CN(S(=O)(=O)c2ccc(-c3cccc4sc(N)nc34)c(-c3nnn[nH]3)c2S(N)(=O)=O)C1.O=C(O)C(F)(F)F [Example 101, (1-((4-(2-aminobenzo[d]thiazol-4-yl)-2-sulfamoyl-3-(1H-tetrazol-5-yl)phenyl)sulfonyl)-3-methylazetidin-3-yl)methanaminium 2,2,2-trifluoroacetate]
- Escherichia coli expressing NDM-1 (CLB30016) MITC95 [1]: 3.125 µM
- Klebsiella pneumoniae expressing VIM-1 (IHMA599644) MITC95 [2]: 6.25 µM
- Serratia marcescens expressing IMP-1 (CL5741) MITC95 [3]: 3.125 µM
- Efflux ratio [4]: 1.00
- P. aeruginosa expressing IMP-1, efflux − (MB9799) MITC95 [5]: 3.125 µM
- pIC50 (VIM-1; VIM-1 IC50, fluorescence assay): 9.13
- pIC50 (NDM-1): 9.54
- pIC50 (IMP-1): 8.90
- P. aeruginosa expressing IMP-1, efflux + (MB9798) MITC95 [6]: 3.125 µM

SMILES: CN1CCC(CNS(=O)(=O)c2ccc(-c3cccc4sc(N)nc34)c(-c3nnn[nH]3)c2S(N)(=O)=O)C1.O=C(O)C(F)(F)F (stereo not drawn) [Example 102, 3-((4-(2-aminobenzo[d]thiazol-4-yl)-2-sulfamoyl-3-(1H-tetrazol-5-yl)phenylsulfonamido)methyl)-1-methylpyrrolidin-1-ium 2,2,2-trifluoroacetate]
- Escherichia coli expressing NDM-1 (CLB30016) MITC95 [1]: 3.125 µM
- Klebsiella pneumoniae expressing VIM-1 (IHMA599644) MITC95 [2]: 3.125 µM
- Serratia marcescens expressing IMP-1 (CL5741) MITC95 [3]: 1.563 µM
- Efflux ratio [4]: 0.50
- P. aeruginosa expressing IMP-1, efflux − (MB9799) MITC95 [5]: 1.563 µM
- pIC50 (VIM-1; VIM-1 IC50, fluorescence assay): 9.71
- pIC50 (NDM-1): 10.49
- pIC50 (IMP-1): 9.58
- P. aeruginosa expressing IMP-1, efflux + (MB9798) MITC95 [6]: 0.7813 µM

SMILES: Nc1nc2c(-c3ccc(S(=O)(=O)N[C@H]4CO[C@H]5[C@@H]4OC[C@H]5N)c(S(N)(=O)=O)c3-c3nnn[nH]3)cccc2s1.O=C(O)C(F)(F)F [Example 103, (3R,3aR,6S,6aR)-6-(4-(2-aminobenzo[d]thiazol-4-yl)-2-sulfamoyl-3-(1H-tetrazol-5-yl)phenylsulfonamido)hexahydrofuro[3,2-b]furan-3-aminium 2,2,2-trifluoroacetate]
- Escherichia coli expressing NDM-1 (CLB30016) MITC95 [1]: 3.125 µM
- Klebsiella pneumoniae expressing VIM-1 (IHMA599644) MITC95 [2]: 3.125 µM
- Serratia marcescens expressing IMP-1 (CL5741) MITC95 [3]: 3.125 µM
- Efflux ratio [4]: 2.00
- P. aeruginosa expressing IMP-1, efflux − (MB9799) MITC95 [5]: 1.563 µM
- pIC50 (VIM-1; VIM-1 IC50, fluorescence assay): 9.71
- pIC50 (NDM-1): 10.53
- pIC50 (IMP-1): 9.65
- P. aeruginosa expressing IMP-1, efflux + (MB9798) MITC95 [6]: 3.125 µM

SMILES: NCC1CN(S(=O)(=O)c2ccc(-c3cccc4sc(N)nc34)c(-c3nnn[nH]3)c2S(N)(=O)=O)CCO1.O=C(O)C(F)(F)F (stereo not drawn) [Example 104, (4-((4-(2-aminobenzo[d]thiazol-4-yl)-2-sulfamoyl-3-(1H-tetrazol-5-yl)phenyl)sulfonyl)morpholin-2-yl)methanaminium 2,2,2-trifluoroacetate]
- Escherichia coli expressing NDM-1 (CLB30016) MITC95 [1]: 1.563 µM
- Klebsiella pneumoniae expressing VIM-1 (IHMA599644) MITC95 [2]: 6.25 µM
- Serratia marcescens expressing IMP-1 (CL5741) MITC95 [3]: 3.125 µM
- Efflux ratio [4]: 2.00
- P. aeruginosa expressing IMP-1, efflux − (MB9799) MITC95 [5]: 1.563 µM
- pIC50 (VIM-1; [7]): 8.80
- pIC50 (NDM-1): 9.64
- pIC50 (IMP-1): 8.91
- P. aeruginosa expressing IMP-1, efflux + (MB9798) MITC95 [6]: 3.125 µM

SMILES: CN(C1CNC1)S(=O)(=O)c1ccc(-c2cccc3sc(N)nc23)c(-c2nnn[nH]2)c1S(N)(=O)=O.O=C(O)C(F)(F)F [Example 105, 3-(4-(2-aminobenzo[d]thiazol-4-yl)-N-methyl-2-sulfamoyl-3-(1H-tetrazol-5-yl)phenylsulfonamido)azetidin-1-ium 2,2,2-trifluoroacetate]
- Escherichia coli expressing NDM-1 (CLB30016) MITC95 [1]: 1.563 µM
- Klebsiella pneumoniae expressing VIM-1 (IHMA599644) MITC95 [2]: 6.25 µM
- Serratia marcescens expressing IMP-1 (CL5741) MITC95 [3]: 1.563 µM
- Efflux ratio [4]: 1.00
- P. aeruginosa expressing IMP-1, efflux − (MB9799) MITC95 [5]: 1.563 µM
- pIC50 (VIM-1; VIM-1 IC50, fluorescence assay): 8.94
- pIC50 (NDM-1): 9.69
- pIC50 (IMP-1): 8.93
- P. aeruginosa expressing IMP-1, efflux + (MB9798) MITC95 [6]: 1.563 µM

SMILES: Nc1nc2c(-c3ccc(S(=O)(=O)NCc4ccccn4)c(S(N)(=O)=O)c3-c3nnn[nH]3)cccc2s1.O=C(O)C(F)(F)F [Example 106, 2-((4-(2-aminobenzo[d]thiazol-4-yl)-2-sulfamoyl-3-(1H-tetrazol-5-yl)phenylsulfonamido)methyl)pyridin-1-ium 2,2,2-trifluoroacetate]
- Escherichia coli expressing NDM-1 (CLB30016) MITC95 [1]: 6.25 µM
- Klebsiella pneumoniae expressing VIM-1 (IHMA599644) MITC95 [2]: 12.5 µM
- Serratia marcescens expressing IMP-1 (CL5741) MITC95 [3]: 3.125 µM
- Efflux ratio [4]: 4.00
- P. aeruginosa expressing IMP-1, efflux − (MB9799) MITC95 [5]: 3.125 µM
- pIC50 (VIM-1; [7]): 9.63
- pIC50 (NDM-1): 10.14
- pIC50 (IMP-1): 9.42
- P. aeruginosa expressing IMP-1, efflux + (MB9798) MITC95 [6]: 12.5 µM

SMILES: CN1CC(N(C)S(=O)(=O)c2ccc(-c3cccc4sc(N)nc34)c(-c3nnn[nH]3)c2S(N)(=O)=O)C1.O=C(O)C(F)(F)F [Example 107, 3-(4-(2-aminobenzo[d]thiazol-4-yl)-N-methyl-2-sulfamoyl-3-(1H-tetrazol-5-yl)phenylsulfonamido)-1-methylazetidin-1-ium 2,2,2-trifluoroacetate]
- Escherichia coli expressing NDM-1 (CLB30016) MITC95 [1]: 3.125 µM
- Klebsiella pneumoniae expressing VIM-1 (IHMA599644) MITC95 [2]: 6.25 µM
- Serratia marcescens expressing IMP-1 (CL5741) MITC95 [3]: 3.125 µM
- Efflux ratio [4]: 4.00
- P. aeruginosa expressing IMP-1, efflux − (MB9799) MITC95 [5]: 1.563 µM
- pIC50 (VIM-1; [7]): 8.77
- pIC50 (NDM-1): 9.73
- pIC50 (IMP-1): 8.85
- P. aeruginosa expressing IMP-1, efflux + (MB9798) MITC95 [6]: 6.25 µM

SMILES: CO[C@H]1CNC[C@@H]1NS(=O)(=O)c1ccc(-c2cccc3sc(N)nc23)c(-c2nnn[nH]2)c1S(N)(=O)=O.O=C(O)C(F)(F)F [Example 108, (3S,4S)-3-(4-(2-aminobenzo[d]thiazol-4-yl)-2-sulfamoyl-3-(1H-tetrazol-5-yl)phenylsulfonamido)-4-methoxypyrrolidin-1-ium 2,2,2-trifluoroacetate]
- Escherichia coli expressing NDM-1 (CLB30016) MITC95 [1]: 1.563 µM
- Klebsiella pneumoniae expressing VIM-1 (IHMA599644) MITC95 [2]: 3.125 µM
- Serratia marcescens expressing IMP-1 (CL5741) MITC95 [3]: 3.125 µM
- Efflux ratio [4]: 1.00
- P. aeruginosa expressing IMP-1, efflux − (MB9799) MITC95 [5]: 1.563 µM
- pIC50 (VIM-1; [7]): 9.57
- pIC50 (NDM-1): 10.29
- pIC50 (IMP-1): 9.47
- P. aeruginosa expressing IMP-1, efflux + (MB9798) MITC95 [6]: 1.563 µM

SMILES: CC(N)CNS(=O)(=O)c1ccc(-c2cccc3sc(N)nc23)c(-c2nnn[nH]2)c1S(N)(=O)=O.O=C(O)C(F)(F)F (stereo not drawn) [Example 109, 1-(4-(2-aminobenzo[d]thiazol-4-yl)-2-sulfamoyl-3-(1H-tetrazol-5-yl)phenylsulfonamido)propan-2-aminium 2,2,2-trifluoroacetate]
- Escherichia coli expressing NDM-1 (CLB30016) MITC95 [1]: 1.563 µM
- Klebsiella pneumoniae expressing VIM-1 (IHMA599644) MITC95 [2]: 3.125 µM
- Serratia marcescens expressing IMP-1 (CL5741) MITC95 [3]: 1.563 µM
- Efflux ratio [4]: 0.50
- P. aeruginosa expressing IMP-1, efflux − (MB9799) MITC95 [5]: 1.563 µM
- pIC50 (VIM-1; VIM-1 IC50, fluorescence assay): 9.49
- pIC50 (NDM-1): 10.09
- pIC50 (IMP-1): 9.36
- P. aeruginosa expressing IMP-1, efflux + (MB9798) MITC95 [6]: 0.7813 µM

SMILES: NCC1CCCCN1S(=O)(=O)c1ccc(-c2cccc3sc(N)nc23)c(-c2nnn[nH]2)c1S(N)(=O)=O.O=C(O)C(F)(F)F (stereo not drawn) [Example 110, (1-((4-(2-aminobenzo[d]thiazol-4-yl)-2-sulfamoyl-3-(1H-tetrazol-5-yl)phenyl)sulfonyl)piperidin-2-yl)methanaminium 2,2,2-trifluoroacetate]
- Escherichia coli expressing NDM-1 (CLB30016) MITC95 [1]: 1.563 µM
- Klebsiella pneumoniae expressing VIM-1 (IHMA599644) MITC95 [2]: 3.125 µM
- Serratia marcescens expressing IMP-1 (CL5741) MITC95 [3]: 3.125 µM
- Efflux ratio [4]: 1.00
- P. aeruginosa expressing IMP-1, efflux − (MB9799) MITC95 [5]: 1.563 µM
- pIC50 (VIM-1; [7]): 9.51
- pIC50 (NDM-1): 10.09
- pIC50 (IMP-1): 9.46
- P. aeruginosa expressing IMP-1, efflux + (MB9798) MITC95 [6]: 1.563 µM
